Experimental findings from patent publication US20070276034A1, “Compounds, compositions and methods for the treatment of synucleinopathies” (priority 2002, published 2007) are described below.

Like-named read-outs stand apart in the source and are kept apart here.

Assay type in all cases: biochemical
One assay has as its target T1, Aβ 1-42 fibrils (Homo sapiens, UniProt P05067).
T1 construct: purchased Bachem Inc
The assay is described as follows: Thioflavin T fluorometry - disruption of pre-formed Aβ 1-42 Alzheimer's fibrils. To be noted: 25 μM pre-fibrillized Aβ 1-42, 37° C., 3 days, read-out: % Inhibition Aβ (result ± S.D.). The source says: In one study, Thioflavin T fluorometry was used to determine the effects of the compounds, and of EDTA (as a negative control). In this assay Thioflavin T binds specifically to fibrillar amyloid, and this binding produces a fluorescence enhancement at 485 nm that is directly proportional to the amount of amyloid fibrils formed. The higher the fluorescence, the greater the amount of amyloid fibrils formed (Naki et al., Lab. Invest. 65:104-110, 1991; Levine III, Protein Sci. 2:404-410, 1993; Amyloid: Int. J. Exp. Clin. Invest. 2:1-6, 1995).
(§1) In this study, 25 μM of pre-fibrillized Aβ 1-42 (Bachem Inc) was incubated at 37° C. for 3 days either alone, or in the presence of one of the compounds or EDTA (at Aβ:test compound weight ratios of 1:1, 1:0.1, 1:0.01 or 1:0.001). Following 3-days of co-incubation, 50 μl of each incubation mixture was transferred into a 96-well microtiter plate containing 150 μl of distilled water and 50 μl of a Thioflavin T solution (i.e. 500 mM Thioflavin T in 250 mM phosphate buffer, pH 6.8). The fluorescence was read at 485 nm (444 nm excitation wavelength) using an ELISA plate fluorometer after subtraction with buffer alone or compound alone, as blank.

Assay [1] concerns the target T2, IAPP fibrils (Homo sapiens, UniProt P10997).
T2 construct: purchased Bachem Inc
T2 sequence (P10997 34-70 limits assumed): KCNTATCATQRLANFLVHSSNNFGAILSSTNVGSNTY
The assay is described as follows: Congo red binding assay with IAPP fibrils. To be noted: 3-day incubation. The protocol: In the Congo red binding assay the ability of a given test compound to alter amyloid (in this case, IAPP) binding to Congo red is quantified. In this assay, IAPP and test compounds were incubated for 3 days and then vacuum filtered through a 0.2 μm filter. The amount of IAPP retained in the filter was then quantitated following staining of the filter with Congo red. After appropriate washing of the filter, any lowering of the Congo red color on the filter in the presence of the test compound (compared to the Congo red staining of the amyloid protein in the absence of the test compound) was indicative of the test compound's ability to diminish/alter the amount of aggregated and congophilic IAPP.
In the study, the ability of IAPP fibrils to bind Congo red in the absence or presence of increasing amounts of the compounds or EDTA (at IAPP:test compound weight ratios of 1:1, 1:0.1, 1:0.01 or 1:0.001) was determined.

In assay [2] the target is T2, IAPP fibrils. The assay is described as follows: Thioflavin T fluorometry - disruption of type 2 diabetes IAPP fibrils. To be noted: 25 μM pre-fibrillized IAPP, 37° C., 3 days, read-out: % Inhibition IAPP (result ± S.D.). The protocol:
In this assay Thioflavin T binds specifically to fibrillar amyloid, and this binding produces a fluorescence enhancement at 485 nm that is directly proportional to the amount of IAPP fibrils present. The higher the fluorescence, the greater the amount of IAPP fibrils present (Naki et al, Lab. Invest. 65:104-110, 1991; Levine III, Protein Sci. 2:404-410, 1993; Amyloid: Int. J. Exp. Clin. Invest. 2:1-6, 1995).
as §1, with “IAPP” for “Aβ 1-42”, “IAPP:test” for “Aβ:test”

Another assay concerns the target T3, NAC fibrils (Homo sapiens, UniProt P37840).
T3 construct: NAC is a 35-amino acid fragment of α-synuclein; purchased Bachem Inc
The assay is described as follows: Thioflavin T fluorometry - disruption of Parkinson's disease NAC fibrils. To be noted: 3 days; for inhibition: 25 μM pre-fibrillized NAC, 37° C., read-out: % Inhibition NAC (result ± S.D.). As for the experimental part: In this assay, Thioflavin T binds specifically to NAC fibrils, and this binding produces a fluorescence enhancement at 485 nm that is directly proportional to the amount of NAC fibrils present. The higher the fluorescence, the greater the amount of NAC fibrils present (Naki et al, Lab. Invest. 65:104-110, 1991; Levine III, Protein Sci. 2:404-410, 1993; Amyloid: Int. J. Exp. Clin. Invest. 2:1-6, 1995).
In this study, 25 μM of pre-fibrillized NAC (Bachem Inc) was incubated at 37° C. for 3 days either alone or in the presence of dihydroxy synthetic analog compounds #1, 3, 23, 26, 52, 63, 66, 67, or EDTA (at NAC:test compound weight ratios of 1:1, 1:0.1, 1:0.01 or 1:0.001). Following 3-days of co-incubation, 50 βl of each incubation mixture was transferred into a 96-well microtiter plate containing 150 μl of distilled water and 50 μl of a Thioflavin T solution (i.e. 500 mM Thioflavin T in 250 mM phosphate buffer, pH 6.8). The fluorescence was read at 485 nm (444 nm excitation wavelength) using an ELISA plate fluorometer after subtraction with buffer alone or compound alone, as blank.

The next assay concerns the target T4, monomeric Aβ 1-42 (Homo sapiens, UniProt P05067).
T4 construct: purchased Bachem Inc
Nature of the assay: SDS-PAGE/Western blot of Aβ 1-42 after incubation with compounds. To be noted: 25 μM pre-fibrillized Aβ 1-42, 37° C., 3 days, 0.2 μm filtrate, antibody 6E10. As for the experimental part:
In this latter study, triplicate samples of pre-fibrillized Aβ 1-42 (25 μM) was incubated at 37° C. for 3 days, alone or in the presence of the compounds or EDTA. Five micrograms of each sample was then filtered through a 0.2 μm filter. Protein recovered from the filtrate was then loaded, and ran on a 10-20% Tris-Tricine SDS-PAGE, blotted to nitrocellulose and detected using an Aβ-antibody (clone 6E10; Senetek).
In general terms: Immunoblotting shows a protein as a band on a membrane.

Setting [3] is: Aβ:test compound wt/wt ratio 1:0.001.
The mark [4] stands for this setting: Aβ:test compound wt/wt ratio 1:0.01.
Setting [5] is: Aβ:test compound wt/wt ratio 1:0.1.
Setting [6] is: Aβ:test compound wt/wt ratio 1:1.
The mark [7] stands for this setting: IAPP:test compound wt/wt ratio 1:0.001.
Where [8] appears, read: IAPP:test compound wt/wt ratio 1:0.01.
[9] abbreviates: IAPP:test compound wt/wt ratio 1:0.1.
Where [10] appears, read: IAPP:test compound wt/wt ratio 1:1.

T1 sequence (P05067 672-713): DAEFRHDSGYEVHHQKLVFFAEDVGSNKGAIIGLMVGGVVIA
T4 sequence (P05067 672-713): as above

`Cc1nc(-c2ccc(O)c(O)c2)cc(-c2ccc(O)c(O)c2)c1C#N` [Compound 8, 4,6-bis(3,4-dihydroxyphenyl)-3-cyano-2-methylpyridine]: the inhibition (commonly the share of the control response that was lost under treatment) stood at 4.9 ± 2.27% at Aβ 1-42 fibrils (setting [3]); 24.7 ± 3.51% on Aβ 1-42 fibrils (setting [4]); 65.5 ± 0.17% at Aβ 1-42 fibrils (setting [5]); 70.8 ± 2.57% at Aβ 1-42 fibrils (setting [6]); 11.4 ± 12.8% at IAPP fibrils [2] (setting [7]); 29.6 ± 5.97% at IAPP fibrils [2] (setting [8]). The figures for the inhibition at IAPP fibrils [2] (setting [9]) and on IAPP fibrils [2] (setting [10]) were 67.8 ± 1.74% and 72.8 ± 1.77%, respectively. The “% Inhibition IAPP (result ± S.D.), Congo red binding” value (from here on “% Inhibition IAPP”) at IAPP fibrils [1] (setting [7]) turned out to be 0.0 ± 6.46%; at IAPP fibrils [1] (setting [8]), 7.2 ± 2.27%; at IAPP fibrils [1] (setting [9]) it was 0.0 ± 2.94%; at IAPP fibrils [1] (setting [10]), 0.0 ± 2.84%.

In the case of `Oc1ccc(CN2CCN(Cc3ccc(O)c(O)c3)CC2)cc1O` [Compound 9, 1,4-bis(3,4-dihydroxybenzyl)piperazine], the inhibition on Aβ 1-42 fibrils (setting [3]) came to 10.6 ± 0.93%; at Aβ 1-42 fibrils (setting [4]), 2 ± 10.8%; at Aβ 1-42 fibrils (setting [5]), 34.9 ± 1.69%; at Aβ 1-42 fibrils (setting [6]) it was 95.1 ± 0.13%.

In the case of `O=C(NCc1ccc(O)c(O)c1)c1ccc(O)c(O)c1` [Compound 52, 3,4-dihydroxybenzoic acid 3,4-dihydroxybenzylamide], the inhibition at Aβ 1-42 fibrils (setting [3]) amounted to 0%; on Aβ 1-42 fibrils (setting [4]), 12.1 ± 0.78%; on Aβ 1-42 fibrils (setting [5]), 53.6 ± 2.42%; on Aβ 1-42 fibrils (setting [6]), 93.7 ± 0.41%; on NAC fibrils (NAC:test compound wt/wt ratio 1:0.001) it was 13.8 ± 10.5%; at NAC fibrils (NAC:test compound wt/wt ratio 1:0.01) it was 79.6 ± 6.43%. For the same molecule, the inhibition on NAC fibrils (NAC:test compound wt/wt ratio 1:0.1) was 89.2 ± 1.49%; on NAC fibrils (NAC:test compound wt/wt ratio 1:1) it was 99.7 ± 1.93%; at IAPP fibrils [2] (setting [7]), 16 ± 8.42%; at IAPP fibrils [2] (setting [8]), 49.2 ± 4.47%; at IAPP fibrils [2] (setting [9]), 86.9 ± 3.09%; at IAPP fibrils [2] (setting [10]), 97.9 ± 0.19%. The “% Inhibition IAPP” value at IAPP fibrils [1] (setting [7]) is given as 10.2 ± 0.52%; at IAPP fibrils [1] (setting [8]), 11.0 ± 3.27%; at IAPP fibrils [1] (setting [9]), 11.5 ± 1.21%; at IAPP fibrils [1] (setting [10]), 31.3 ± 0.27%. The “disruption/disassembly of pre-formed NAC fibrils (in words)” value at NAC fibrils (all concentrations tested (ratios 1:1 to 1:0.001)) was “dose-dependent disruption/disassembly”.

In the case of `O=C(CCc1ccc(O)c(O)c1)Nc1ccc(O)c(O)c1` [Compound 57, 3-(3,4-dihydroxyphenyl)propionic acid 3,4-dihydroxyanilide], the inhibition on Aβ 1-42 fibrils (setting [3]) is 17.7 ± 7.43%; on Aβ 1-42 fibrils (setting [4]), 19 ± 6.33%; at Aβ 1-42 fibrils (setting [5]), 60.2 ± 3.12%; on Aβ 1-42 fibrils (setting [6]) it was 88.4 ± 2.73%; at IAPP fibrils [2] (setting [7]), 1.9 ± 5.24%; at IAPP fibrils [2] (setting [8]) it was 37.3 ± 0.78%. In addition, the inhibition on IAPP fibrils [2] (setting [9]) turned out to be 73.2 ± 1.19%; at IAPP fibrils [2] (setting [10]), 94.1 ± 0.46%. Further, the “% Inhibition IAPP” value is reported as 4.5 ± 0.64% at IAPP fibrils [1] (setting [7]), 8.5 ± 3.19% on IAPP fibrils [1] (setting [8]), 8.9 ± 3.90% on IAPP fibrils [1] (setting [9]) and 15.7 ± 3.77% at IAPP fibrils [1] (setting [10]).

Turning to `O=C(CCc1ccc(O)c(O)c1)NCc1ccc(O)c(O)c1` [Compound 58, 3-(3,4-dihydroxyphenyl)propionic acid 3,4-dihydroxybenzylamide], the inhibition at Aβ 1-42 fibrils (setting [3]) came out at 20.5 ± 6.27%; on Aβ 1-42 fibrils (setting [4]), 33.2 ± 5.16%; on Aβ 1-42 fibrils (setting [5]), 76 ± 2.57%; at Aβ 1-42 fibrils (setting [6]) it was 94.8 ± 1.67%; at IAPP fibrils [2] (setting [7]) it was 8.9 ± 6.87%; on IAPP fibrils [2] (setting [8]) it was 48.8 ± 2.05%. Further, the inhibition at IAPP fibrils [2] (setting [9]) worked out at 87.6 ± 1.16%; on IAPP fibrils [2] (setting [10]), 98.1 ± 1.04%. The “% Inhibition IAPP” value at IAPP fibrils [1] (setting [7]) was 0.0 ± 1.93%; on IAPP fibrils [1] (setting [8]), 4.6 ± 2.35%; at IAPP fibrils [1] (setting [9]), 0.7 ± 6.21%; at IAPP fibrils [1] (setting [10]), 24.5 ± 0.57%. Besides, the “detection of Aβ 1-42 monomers (~4 kilodalton band) on Western blot” value on monomeric Aβ 1-42 is reported as “not detected”.

For the molecule `Oc1ccc(CNCc2ccc(O)c(O)c2)cc1O` [Compound 73, bis(3,4-dihydroxybenzyl)amine], the inhibition amounted to 0% at Aβ 1-42 fibrils (setting [3]), 28.7 ± 10.3% on Aβ 1-42 fibrils (setting [4]), 70.9 ± 3.04% at Aβ 1-42 fibrils (setting [5]) and 99.4 ± 0.42% on Aβ 1-42 fibrils (setting [6]).
